# Patent publication US8383637B2, “2-amino-quinazoline derivatives useful as inhibitors of β-secretase (BACE)” (Jansssen Pharmaceutica N.V., priority 2004, dated 2013)
# Target: T1, β-secretase(BACE) (Homo sapiens, UniProt P56817)
# T1 construct: purchased Panvera
# Assay: BACE Assay-1 (MCA-substrate, IC50)
# Type: biochemical
# Settings: procedure of Example 158; read-out: IC50 μM (158)
# Description: The following standards are reagents were used in this assay: Sodium Citrate trisodium salt dihydrate (Sigma), Citric Acid monohydrate (Merck), PEG8000 (Sigma), MCA-substrate (Bachem), β-secretase (BACE) (Panvera), 96-well plate zwart (Costar (Elscolab)), StatVal (Bachem).
# The following standard assay buffer solution was prepared and used in this assay: 0.05 M, pH 5.0 mixture of sodium citrate trisodium salt dihydrate (9.56 g), citric acid monohydrate (3.68 g) and PEG8000 (0.50 g).
# The MCA-substrate stock solution was prepared by mixing 10 mg MCA-substrate with 5 mL DMSO for a final solution concentration of 2.0 mg/mL. The substrate work solution was prepared by mixing 0.1 mL substrate in 1.90 mL assay buffer for a final concentration of 0.05 mM. The β-secretase (BACE) work solution was prepared by mixing 8 μL BACE in 2 mL assay buffer for a final concentration of 10 μg/mL.
# The screen procedure for this assay was as follows. 60 μL of assay buffer was pippeted into each well of a 96-well plate. To each well was then pipetted 1 μL of test compound at the selected concentration. To each well was then added 20 μL of the β-secretase work solution and 20 μL of the MCA-substrate stock solution.
# The procedure for the blank was as follows. 80 μL of assay buffer was pipetted into each well to be used as a blank control. To each well was then added 1 μL of DMSO and 20 μL of MCA-substrate solution in each well.
# The procedure for the positive control was as follows. 60 μL of assay buffer was pipetted into each well to be used as a positive control. To each well was then added 1 μL of DMSO, 20 μL of BACE work solution and 20 μL of MCA-substrate stock solution.
# For test compounds, measured at multiple concentrations, the measured T0 and T60 values were used to calculate an IC50 value using Graphpad Software (or PIR).
# T1 sequence (P56817 46-501): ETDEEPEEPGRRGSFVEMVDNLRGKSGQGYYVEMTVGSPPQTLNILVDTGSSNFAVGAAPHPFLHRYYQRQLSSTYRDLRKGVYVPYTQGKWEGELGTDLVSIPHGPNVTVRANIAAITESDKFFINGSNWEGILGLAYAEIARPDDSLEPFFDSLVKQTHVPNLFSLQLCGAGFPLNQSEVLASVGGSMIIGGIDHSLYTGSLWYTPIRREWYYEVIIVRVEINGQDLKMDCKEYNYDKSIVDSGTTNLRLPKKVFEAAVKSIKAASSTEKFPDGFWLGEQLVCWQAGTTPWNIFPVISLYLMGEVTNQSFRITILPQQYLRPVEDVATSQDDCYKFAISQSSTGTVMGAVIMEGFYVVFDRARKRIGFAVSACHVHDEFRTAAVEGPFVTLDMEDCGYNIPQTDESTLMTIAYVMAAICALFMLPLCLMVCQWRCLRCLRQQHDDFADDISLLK
row,SMILES,IC50
1,CN(Cc1ccccc1)C(=O)CCCCN1Cc2cc(C(=O)c3ccccc3)ccc2N=C1N [Compound 47],4.2 µM
2,CN(C(=O)CCCCN1Cc2cc(C(=O)c3ccccc3)ccc2N=C1N)C12CC3CC(CC(C3)C1)C2 [Compound 48],4 µM
3,CN(C(=O)CCCCN1Cc2cc(C(=O)c3ccccc3)ccc2N=C1N)C1CCCc2ccccc21 (stereo not shown) [Compound 54],2.3 µM
4,"CN(C1CCCCC1)S(=O)(=O)CCN1Cc2cc(C(=O)c3ccccc3)ccc2N=C1N [Compound 57, 2-(2-Amino-6-benzoyl-4H-quinazolin-3-yl)-ethanesulfonic acid cyclohexyl-methyl-amide]",1.4 µM
5,CCCN1Cc2cc(Oc3cccc(NC(=O)c4ccccc4)c3)ccc2N=C1N [Compound 60],5.6 µM
6,CN(C1CCCCC1)S(=O)(=O)CCN1Cc2cc(Oc3cccc(NC(=O)OCc4ccccc4)c3)ccc2N=C1N [Compound 71],2.6 µM
7,NC1=Nc2ccc(Oc3cccc(NC(=O)OCc4ccccc4)c3)cc2CN1CCCCC(=O)N(C1CCCCC1)C1CCCCC1 [Compound 75],0.66 µM
8,NC1=Nc2ccc(Oc3cccc(NCC4CCCCC4)c3)cc2CN1CCCCO [Compound 95],0.31 µM
9,CN(C(=O)CCCCN1Cc2cc(Oc3cccc(NCC4CCCCC4)c3)ccc2N=C1N)C1CCCCC1 [Compound 96],0.78 µM
10,NC1=Nc2ccc(Oc3cccc(NS(=O)(=O)c4ccccc4)c3)cc2CN1CCCCO [Compound 126],0.24 µM
11,CN(C(=O)CCCCN1Cc2cc(Oc3cccc(NC(=O)OCc4ccccc4)c3)ccc2N=C1N)C1CCCCC1 [Compound 133],0.15 µM
12,CCCN1Cc2cc(OCc3cccc(NS(=O)(=O)c4ccccc4)c3)ccc2N=C1N [Compound 203],4.7 µM
13,CCCN1Cc2cc(Oc3cccc(NS(C)(=O)=O)c3)ccc2N=C1N [Compound 237],> 10 µM
14,CCCN1Cc2cc(Oc3cccc(NS(=O)(=O)C(C)C)c3)ccc2N=C1N [Compound 238],8.9 µM
15,CCCCS(=O)(=O)Nc1cccc(Oc2ccc3c(c2)CN(CCC)C(N)=N3)c1 [Compound 239],0.35 µM
16,CCCN1Cc2cc(Oc3cccc(NS(=O)(=O)c4ccsc4)c3)ccc2N=C1N [Compound 240],0.89 µM
17,CCCN1Cc2cc(Oc3cccc(NS(=O)(=O)c4cccs4)c3)ccc2N=C1N [Compound 241],0.49 µM
18,CCCN1Cc2cc(Oc3cccc(NS(=O)(=O)c4c(C)noc4C)c3)ccc2N=C1N [Compound 242],> 10 µM
19,CCCN1Cc2cc(Oc3cccc(NS(=O)(=O)c4c(C)cc(C)cc4C)c3)ccc2N=C1N [Compound 243],0.033 µM
20,CCCN1Cc2cc(Oc3cccc(NS(=O)(=O)c4ccc5ccccc5c4)c3)ccc2N=C1N [Compound 244],2.1 µM
21,CCCN1Cc2cc(Oc3cccc(NS(=O)(=O)c4csc5ccccc45)c3)ccc2N=C1N [Compound 245],0.17 µM
22,CCCN1Cc2cc(Oc3cccc(NS(=O)(=O)c4ccc(NC(C)=O)cc4)c3)ccc2N=C1N [Compound 246],> 10 µM

row,SMILES,IC50
1,CCCN1Cc2cc(Oc3cccc(NS(=O)(=O)c4cc(OC)ccc4OC)c3)ccc2N=C1N [Compound 248],6.9 µM
2,CCCN1Cc2cc(Oc3cccc(NS(=O)(=O)c4ccc(OC)c(OC)c4)c3)ccc2N=C1N [Compound 249],5.2 µM
3,CCCN1Cc2cc(Oc3cccc(NS(=O)(=O)c4ccccc4S(C)(=O)=O)c3)ccc2N=C1N [Compound 250],> 10 µM
4,CCCN1Cc2cc(Oc3cccc(NS(=O)(=O)c4ccc(-c5ccccn5)s4)c3)ccc2N=C1N [Compound 251],> 10 µM
5,CCCN1Cc2cc(Oc3cccc(NS(=O)(=O)c4cccc(OC(F)(F)F)c4)c3)ccc2N=C1N [Compound 252],1 µM
6,CCCN1Cc2cc(Oc3cccc(NS(=O)(=O)c4cccc5c(N(C)C)cccc45)c3)ccc2N=C1N [Compound 253],> 10 µM
7,CCCN1Cc2cc(Oc3cccc(NS(=O)(=O)c4ccc(-c5csc(C)n5)s4)c3)ccc2N=C1N [Compound 254],> 10 µM
8,CCCN1Cc2cc(Oc3cccc(NS(=O)(=O)c4ccc(-c5cc(C(F)(F)F)on5)s4)c3)ccc2N=C1N [Compound 255],> 10 µM
9,CCCN1Cc2cc(Oc3cccc(NS(=O)(=O)Cc4ccccc4)c3)ccc2N=C1N [Compound 269],0.35 µM
10,CCCN1Cc2cc(Oc3cccc(NS(=O)(=O)c4cccc(C#N)c4)c3)ccc2N=C1N [Compound 270],2.37 µM
11,CCCN1Cc2cc(Oc3cccc(NS(=O)(=O)c4cccc(OC)c4)c3)ccc2N=C1N [Compound 271],0.39 µM
12,CCCN1Cc2cc(Oc3cccc(NS(=O)(=O)c4ccc(OC)cc4)c3)ccc2N=C1N [Compound 272],0.52 µM
13,CCCN1Cc2cc(Oc3cccc(NS(=O)(=O)c4ccc(C)cc4OC)c3)ccc2N=C1N [Compound 273],0.17 µM
14,CCCN1Cc2cc(Oc3cccc(NS(=O)(=O)c4cccc5ccccc45)c3)ccc2N=C1N [Compound 274],> 10 µM
15,CCCN1Cc2cc(Oc3cccc(NS(=O)(=O)c4ccc5c(c4)OCCO5)c3)ccc2N=C1N [Compound 275],> 10 µM
16,CCCN1Cc2cc(Oc3cccc(NS(=O)(=O)c4ccsc4C(=O)OC)c3)ccc2N=C1N [Compound 276],> 10 µM
17,CCCN1Cc2cc(Oc3cccc(NS(=O)(=O)c4ccccc4C(F)(F)F)c3)ccc2N=C1N [Compound 277],0.7 µM
18,CCCN1Cc2cc(Oc3cccc(NS(=O)(=O)c4ccc(-c5ccno5)s4)c3)ccc2N=C1N [Compound 278],> 10 µM
19,CCCN1Cc2cc(Oc3cccc(NS(=O)(=O)c4cc(C(=O)O)ccc4OC)c3)ccc2N=C1N [Compound 279],> 10 µM
20,CCCN1Cc2cc(Oc3cccc(NS(=O)(=O)c4ccc(-c5ccccc5)cc4)c3)ccc2N=C1N [Compound 280],11 µM
21,CCCN1Cc2cc(Oc3cccc(NS(=O)(=O)CCc4cccc5ccccc45)c3)ccc2N=C1N [Compound 281],1.6 µM
22,CCCN1Cc2cc(Oc3cccc(NS(=O)(=O)c4cccc(Br)c4)c3)ccc2N=C1N [Compound 282],> 10 µM

row,SMILES,IC50
1,CCCN1Cc2cc(Oc3cccc(NS(=O)(=O)c4ccc(OC(F)(F)F)cc4)c3)ccc2N=C1N [Compound 283],> 10 µM
2,CCCN1Cc2cc(Oc3cccc(NS(=O)(=O)c4ccc(Br)s4)c3)ccc2N=C1N [Compound 284],0.87 µM
3,CCCN1Cc2cc(Oc3cccc(NS(=O)(=O)c4cc(S(=O)(=O)c5ccccc5)cs4)c3)ccc2N=C1N [Compound 285],> 10 µM
4,COc1cc(OC)cc(Oc2ccc3c(c2)CN(CCCCC(=O)N(C)C2CCCCC2)C(N)=N3)c1 [Compound 288],> 10 µM
5,CCOC(=O)N1CCC(N2Cc3cc(Oc4cccc(NS(=O)(=O)c5ccc(C)cc5OC)c4)ccc3N=C2N)CC1 [Compound 353],0.35 µM
6,COc1cc(C)ccc1S(=O)(=O)Nc1cccc(Oc2ccc3c(c2)CN(CCCCCO)C(N)=N3)c1 [Compound 355],2.6 µM
7,CCOC(=O)N1CCC(N2Cc3cc(Oc4cccc(NS(=O)(=O)c5c(C)cc(C)cc5C)c4)ccc3N=C2N)CC1 [Compound 362],0.53 µM
8,CCOC(=O)N1CCC(N2Cc3cc(Oc4cccc(NS(=O)(=O)c5ccccc5)c4)ccc3N=C2N)CC1 [Compound 376],0.17 µM
9,NC1=Nc2ccc(Oc3cccc(NS(=O)(=O)c4ccccc4)c3)cc2CN1CCCCCO [Compound 380],0.71 µM
10,Cc1cc(C)c(S(=O)(=O)Nc2cccc(Oc3ccc4c(c3)CN(CCCCCO)C(N)=N4)c2)c(C)c1 [Compound 383],0.65 µM
11,CC(C)(C)OC(=O)N1CCC(CN2Cc3cc(Oc4cccc(NS(=O)(=O)c5ccccc5)c4)ccc3N=C2N)CC1 [Compound 384],0.13 µM
12,"CCCN1Cc2cc(-c3ccccc3CCNS(=O)(=O)c3ccccc3)ccc2N=C1N [Compound 385, N-{2-[2-(2-Amino-3-propyl-3,4-dihydro-quinazolin-6-yl)-phenyl]-ethyl}-benzenesulfonamide]",0.28 µM
13,"CCCN1Cc2cc([S+]([O-])c3cccc(NS(=O)(=O)c4ccccc4)c3)ccc2N=C1N (stereo not shown) [Compound 387, N-[3-(2-Amino-3-propyl-3,4-dihydro-quinazoline-6-sulfinyl)-phenyl]-benzenesulfonamide]",3.3 µM
14,CC(C)(C)OC(=O)NCCN1Cc2cc(Oc3cccc(NS(=O)(=O)c4ccccc4)c3)ccc2N=C1N [Compound 394],0.87 µM
15,CCCN1Cc2cc(-c3cccc(NS(=O)(=O)c4ccccc4)c3)ccc2N=C1N [Compound 397],3.98 µM
16,CCCN1Cc2cc(Oc3cccc(C(=O)NCc4c(C)cc(C)cc4C)c3)ccc2N=C1N [Compound 423],5.8 µM
17,CCCN1Cc2cc(Oc3cccc(CNCCc4ccccc4)c3)ccc2N=C1N [Compound 431],0.8 µM
18,CCCN1Cc2cc(Sc3cccc(NS(=O)(=O)c4c(C)cc(C)cc4C)c3)ccc2N=C1N [Compound 497],0.011 µM
19,CCCN1Cc2cc(Oc3cccc(NCc4c(C)cc(C)cc4C)c3)ccc2N=C1N [Compound 500],0.16 µM
20,CCCN1Cc2cc(Oc3cccc(NCc4c(OC)cccc4OC)c3)ccc2N=C1N [Compound 501],3.4 µM
